Measured values reported in BindingDB's records for doi:10.1021/jm00083a001 (Ici Pharmaceuticals Group, 1992).

Assay: Inhibition of prolyl 4-hydroxylase

IC50	Structure (SMILES)
1800 nM	O=C(NS(=O)(=O)c1cccc2cccnc12)c1ccc(C(=O)O)nc1
6600 nM	O=C(NS(=O)(=O)c1ccc(-c2cc(Cl)c3ccc(Cl)cc3n2)cc1)c1ccc(C(=O)O)nc1
4400 nM	O=C(NS(=O)(=O)c1cccc2ccccc12)c1ccc(C(=O)O)nc1

Second part, the compound before the results:

Structure (SMILES)	IC50
CS(=O)(=O)NC(=O)c1ccc(C(=O)O)nc1	1800 nM
O=C(NS(=O)(=O)c1cc(Br)c(Br)s1)c1ccc(C(=O)O)nc1	8500 nM
O=C(NS(=O)(=O)c1ccc(Cl)s1)c1ccc(C(=O)O)nc1	2400 nM
O=C(NS(=O)(=O)Cc1ccccc1)c1ccc(C(=O)O)nc1	3000 nM
